Measurements as given in the NIST ThermoML archive (doi:10.1021/acs.jced.8b00499).
Numbers after ± are expanded uncertainties.

Experiments:
[1] = Liquid; for viscosity / mass density: 298.15 K, 101.33 kPa; for viscosity: Capillary tube (Ostwald / Ubbelohde) method; for mass density: Pycnometric method; for vapor or sublimation pressure: Ebulliometric method (Recirculating still)
[2] = refractive index (Na D-line) (dimensionless); details: 298.15 K; 101.33 kPa; Liquid; Standard Abbe refractometry

With `CCC(C)OCOC` (stereo unspecified) [2-(methoxymethoxy)butane] the viscosity [1] was 0.561 ± 0.014 mPa·s, the mass density [1] was 836.4 ± 1 kg/m3 and the “vapor or sublimation pressure” value ([1]; 346.4 K) was 31.5 ± 1 kPa. For the same compound, the “vapor or sublimation pressure” value ([1]; 349.99 K) was 36.4 ± 1 kPa, the “vapor or sublimation pressure” value ([1]; 356.07 K) was 44.4 ± 1 kPa and the “vapor or sublimation pressure” value ([1]; 359.47 K) was 49.6 ± 1 kPa. For the same compound, the “vapor or sublimation pressure” value ([1]; 363.89 K) was 57.2 ± 1 kPa, the “vapor or sublimation pressure” value ([1]; 367.43 K) was 65.1 ± 1 kPa and the “vapor or sublimation pressure” value ([1]; 372.48 K) was 75.7 ± 1 kPa. For the same compound, the “vapor or sublimation pressure” value ([1]; 376.45 K) was 85.1 ± 1 kPa, the “vapor or sublimation pressure” value ([1]; 379.35 K) was 92 ± 1 kPa and the “vapor or sublimation pressure” value ([1]; 382.8 K) was 101.3 ± 1 kPa. For the same compound, the “vapor or sublimation pressure” value ([1]; 385.21 K) was 109.1 ± 1 kPa, the “vapor or sublimation pressure” value ([1]; 388.5 K) was 119 ± 1 kPa and the “vapor or sublimation pressure” value ([1]; 391.24 K) was 127.9 ± 1.1 kPa. The refractive index [2] was 1.3833 ± 0.0006.

For `CCCCO` [butan-1-ol], the viscosity [1] was 2.534 ± 0.072 mPa·s, the mass density [1] was 806 ± 0.9 kg/m3 and the “vapor or sublimation pressure” value ([1]; 390.9 K) was 101.3 ± 1.1 kPa. The refractive index [2] was 1.3972 ± 0.0006.

For `CCC(C)O` (stereo unspecified) [butan-2-ol], the viscosity [1] was 3.099 ± 0.09 mPa·s, the mass density [1] was 802.6 ± 0.9 kg/m3 and the “vapor or sublimation pressure” value ([1]; 344.47 K) was 31.5 ± 1 kPa. The “vapor or sublimation pressure” value ([1]; 351.27 K) was 42.8 ± 1 kPa, the “vapor or sublimation pressure” value ([1]; 356.45 K) was 53.5 ± 1 kPa and the “vapor or sublimation pressure” value ([1]; 363.21 K) was 70.7 ± 1 kPa. The “vapor or sublimation pressure” value ([1]; 366.85 K) was 81.2 ± 1 kPa, the “vapor or sublimation pressure” value ([1]; 369.83 K) was 91.3 ± 1.1 kPa and the “vapor or sublimation pressure” value ([1]; 372.7 K) was 101.3 ± 1.1 kPa. The refractive index [2] was 1.395 ± 0.0006.

With `CO` [methanol] the “vapor or sublimation pressure” value ([1]; 337.83 K) was 101.3 ± 1.1 kPa.
